Measurements published in patent US11680264B2, “Methods of modulating melanosome pH and melanin level in cells” (Cornell University, priority 2016, dated 2023).

Columns and labels:
[1] = test system: sAC^KO mouse melanocytes; assay: DAMP melanosome pH assay (HMB45 co-staining); assay type: cell-based; details: 4 hours; for melanosome pH (DAMP), substance alone: KH7 30 μM, cAMP analogs 500 μM, ESI-09 10 μM, MSH 100 nM; for effect on cAMP-dependent rescue of melanosome pH (DAMP): co-incubation with cAMP [Sp-8-CPT-cAMPs], 10 μM
Experimental: (§1) N-{3-[(2,4-dinitrophenyl)amino]propyl}-N-(3-aminopropyl)methylamine dihydrochloride (DAMP) is a weakly basic amine that is taken up in acidic organelles of live cells and which has been used to measure melanosome pH (Bin et al., PLOS One, 10(6):e0129273 (2015); Tabata et al., Cell Tissue Res., 332(3): 447-460 (2008)). Cells were cultured on sterile glass coverslips in 24-mm wells at 50×10^3 cells/coverslip. […] After permeabilization with 0.1% Triton X-100 in Buffer A at −20° C., the cells were labeled with the supplied anti-DNP antibody (Oxford Biomedical Research) according to kit protocol. Melanosomes were identified using the monoclonal antibody (anti-HMB45, 1:40, Santa Cruz Biotechnology). Fluorescence was detected after secondary staining with Alexa Fluor 546 donkey anti-goat IgG antibody (Invitrogen) and Alexa Fluor 647 donkey anti-mouse IgG antibody (Invitrogen). All quantitative analyses were performed using the Object Count tool in Nikon AR 4.60. For each image, the lower intensity threshold limit of each fluorescence channel was defined as the intensity of the dimmest punctum returned using the 3 points circle threshold tool. The upper intensity threshold limit was set to the maximum value. Equivalent diameter (EqDiameter) was restricted to 1.85-30.00 pixels. Circularity was restricted to 0.20-1.00. Mean fluorescence intensity was measured for all DAMP^+ puncta. Melanosomes were identified as HMB45^+ puncta. DAMP measurements were only recorded when colocalized with HMB45. Frequency distributions were generated for each sample from mean DAMP fluorescence intensity of DAMP^+ melanosomes. All analyses were performed on two replicate coverslips (n≥15 cells per coverslip). Melanosomes were first identified as TRP1^+ or tyrosinase^+ puncta. sAC^+ melanosomes were identified as R52^+ or R21^+ puncta colocalizing with TRP1^+ or tyrosinase^+ puncta. The degree of colocalization between sAC and melanosomes was calculated as the number of sAC+ melanosomes divided by the total number of melanosomes and expressed as a percentage.
(§2) The effect of pharmacologic inhibition of sAC was also measured using the DAMP assay described above. Briefly, Cells were cultured on sterile glass coverslips in 24-mm wells at 50×10^3 cells/coverslip and treated or not treated for 4 hours with 30 μM KH7 or LRE1. […] After permeabilization with 0.1% Triton X-100 in Buffer A at −20° C., the cells were labeled with the supplied anti-DNP antibody (Oxford Biomedical Research) according to kit protocol. Melanosomes were identified using the monoclonal antibody (anti-HMB45, 1:40, Santa Cruz Biotechnology). Fluorescence was detected after secondary staining with Alexa Fluor 546 donkey anti-goat IgG antibody (Invitrogen) and Alexa Fluor 647 donkey anti-mouse IgG antibody (Invitrogen). All images were acquired using a Zeiss LSM 880 and analyzed using NIS-Elements AR 4.60 (Nikon).

[2] = test system: sAC^FF mouse melanocytes; assay: DAMP melanosome pH assay (HMB45 co-staining); assay type: cell-based; details: sAC^FF mouse melanocytes; for melanosome pH (DAMP uptake at HMB45 positive melanosomes), substance alone: 4 hours, KH7 30 μM, cAMP 500 μM, H89 10 μM, PKI 10 μM, ESI-09 10 μM
Experimental: as §1, §2

[3] = test system: human melanocytes; assay: DAMP melanosome pH assay (HMB45 co-staining); assay type: cell-based; details: for melanosome pH (DAMP), substance alone: 4 hours, KH7 30 μM, cAMP 500 μM, H89 10 μM, ESI-09 10 μM
Experimental: as §1
The effect of sAC inhibition on melanosome pH was also assessed in human melanocytes.

[4] = test system: human melanocytes; assay: Cellular eumelanin content; assay type: cell-based; details: 48 hours, KH7 30 μM, ESI-09 10 μM
Experimental: (§3) FIGS. 15A-15J provide the results of experiments analyzing the effect of sAC activity on melanin production. FIG. 15A is a graph illustrating the cellular eumelanin and pheomelanin content in sAC^FF (FF) and sAC^KO (KO) mouse melanocytes. Numbers above bars represent the ratio of pheomelanin to eumelanin. Average of triplicate determinations. FIG. 15B is a graph illustrating the cellular eumelanin content of sAC^FF and sAC^KO mouse melanocytes grown for 96 hours in the absence (−, DMSO) or presence of KH7 (+, 30 μM). Average of triplicate determinations. FIG. 15C is a graph illustrating the fold over baseline cellular eumelanin level of human melanocytes (n=8) treated with KH7 (30 μM) or vehicle (DMSO) for 48 hours. All assays performed in triplicate. Students t-test **P<0.01, ****P<0.0001. FIG. 15D is images of cell pellets of sAC^FF and sAC^KO mouse melanocytes. FIG. 15E is a graph of the melanin levels of pairs of sAC^FF and sAC^KO mouse melanocytes. FIGS. 15F and 15G are images of cell pellets of sAC^FF mouse melanocytes grown in the absence (DMSO, FIGS. 15G and 15F, left panels) or presence of KH7 (FIG. 15G, 30 μM, right panel) or LRE1 (FIG. 15F, 50 μM, right panel) for 96 hours. FIG. 15H is images of cell pellets of human melanocytes (C226, C38) treated with vehicle control (DMSO, left) or KH7 (30 μM, right) for 48 hours. FIG. 15I is images of cell pellets of human melanocytes (C226) treated with vehicle control (DMSO, left) or ESl-09 (10 μM, right) for 48 hours. FIG. 15J is a graph illustrating the fold over baseline cellular (eumelanin) level of human melanocytes treated with ESl-09 (10 μM) or vehicle (DMSO) for 48 hours (n=3, distinct human cell lines). For FIGS. 15E and 15J Students t-test, *p<0.05, **p<0.01, ****p<0.0001.

[5] = test system: PKA targeted proteins; assay: Western blot of PKA substrate phosphorylation; assay type: cell-based; details: mouse and human melanocytes, 4 hours
[6] = test system: sAC^KO mouse melanocytes; assay: Cellular eumelanin content; assay type: cell-based; details: 96 hours
Experimental: as §3

[7] = test system: sAC^FF mouse melanocytes; assay: Cellular eumelanin content; assay type: cell-based; details: KH7 30 μM or LRE1 50 μM, 96 hours
Experimental: as §3

[8] = test system: C3H/HeJ mice; assay: Topical treatment of epilated back skin, hair pigmentation; assay type: in vivo, mouse
Experimental: Therefore, experiments were performed to determine whether inhibition of sAC in animals could alter hair pigmentation. Animal experiments were performed in accordance with approved Institutional Animal Care and Use Committee protocol at Weill Cornell Medicine. Age and gender matched C3H/HeJ mice (female, 7 weeks old) were purchased from The Jackson Laboratory. For the analysis of hair pigmentation, the upper and lower dorsum of each mouse were epilated using hair removal wax. 10 μl of KH7 (42 mg/ml in DMSO), LRE1 (28 mg/ml in DMSO) or DMSO (vehicle control) was topically applied onto the upper back and DMSO was applied to the lower back three times a day over two weeks. These mice were monitored for changes in coat color as the epilated hair grew back. Hair was removed from each treated area after 3 weeks to measure the length of the total hair, apical black tip and subapical agouti (pheomelanin) band under a stereo microscope. Mice were euthanized and the treated skin was submitted to a blinded animal pathologist for histological evaluation of the epidermis and hair follicles. This experiment was performed twice with 3-4 mice per cohort (total n=6-7)

[9] = test system: sAC^KO mouse melanocytes; assay: LysoSensor Yellow/Blue DND-160 organelle pH assay; assay type: cell-based; details: 30 μM, 4 hours
Experimental: (§4) To determine the pH of the sAC^KO and sAC^FF melanocytes the pH-sensitive vital dye LysoSensor Yellow/Blue DND-160 (Bellono et al. Sci Rep., 6:26570 (2016)) was used. Briefly, cells were incubated with 1 μM LysoSensor DND-160 (Invitrogen) for 5 minutes at 37° C. Lysosensor was excited at 405 nm and its emission detected at 417-483 nm (W1) and 490-530 nm (W2). The ratio of emissions (W1/W2) in Lysosensor-stained puncta was assigned to a pH value based on a calibration curve generated for each experiment using solutions containing 125 mM KCl, 25 mM NaCl, 24 μM monensin, and varying concentrations of MES to adjust the pH to 4, 4.5, 5.0, 5.5, 6.0, 6.5, 7.0, 7.5. The fluorescence ratio was linear for pH 5.0-7.0.
as §4, with “The effect” for “To determine the pH”, “pharmacologic inhibition of sAC was examined using” for “the sAC^KO and sAC^FF melanocytes”, “vial” for “vital”, “assay, described above.” for “(Bellono et al. Sci Rep., 6:26570 (2016)) was used.”, “Briefly, cultured sAC^FF melanocytes were treated for 4 hours with 30 μM KH7, 30 μM LRE1, or control (untreated). The” for “Briefly,”

[10] = test system: sAC^FF mouse melanocytes; assay: LysoSensor Yellow/Blue DND-160 organelle pH assay; assay type: cell-based; details: 30 μM, 4 hours
Experimental: as §4
as §4, with “The effect” for “To determine the pH”, “pharmacologic inhibition of sAC was examined using” for “the sAC^KO and sAC^FF melanocytes”, “vial” for “vital”, “assay, described above.” for “(Bellono et al. Sci Rep., 6:26570 (2016)) was used.”, “Briefly, cultured sAC^FF melanocytes were treated for 4 hours with 30 μM KH7, 30 μM LRE1, or control (untreated). The” for “Briefly,”

[11] = test system: C3H/HeJ mice; assay: Topical treatment of ear, epidermal pigmentation (Fontana Masson); assay type: in vivo, mouse; details: topical on right ear, twice a day for two weeks
Experimental: Melanocytes also exist in the epidermis at specific areas of mouse skin (e.g., pinnae) (Nordlund et al., Dermatol Clin., 4(3): 407-418 (1986)); thus, these areas were studied to examine the role of sAC in epidermal pigmentation. For analysis of epidermal pigmentation, using C3H/HeJ mice as above, 20 μl of KH7 ([…]), LRE1 (28 mg/ml) or DMSO (vehicle control) was topically applied on the right ear and DMSO was topically applied on the left ear twice a day for two weeks. Ear skin was monitored daily for irritation and changes in pigmentation. After two weeks, mice were euthanized and the treated skin was submitted to a blinded animal pathologist for histological evaluation of the epidermis and special stains (Fontana Masson). This experiment was performed twice with 3 mice per cohort (total n=6)

[12] = co-incubation with 30 μM KH7, 4 hours, cAMP analogs 500 μM, MSH 100 nM
[13] = topical on back, hair removed after 3 weeks

CO[C@H]1C2OP(=O)(O)OC[C@H]2O[C@H]1n1c(Sc2ccc(O)cc2)nc2c(N)ncnc21 (stereo partly shown) [8-pHPT-2′-O-Me-cAMP, 8-(4-Hydroxyphenylthio)-2′-O-methyladenosine-3′, 5′-cyclic monophosphate]
melanosome pH (DAMP), substance alone [1]: sufficient to induce melanosome acidification | effect on KH7-induced alkaline shift in melanosome pH (DAMP) [2, 12]: mitigate the KH7-induced alkalization of melanosome pH | effect on KH7-induced alkaline shift in melanosome pH (DAMP) [3, 12]: mitigate the KH7-induced alkalization of melanosome pH

CC(C)(C)c1cc(C(=O)C(C#N)=NNc2cccc(Cl)c2)no1 [ESI-09, 3-(5-tert-butyl-isoxazol-3-yl)-2-((3-chlorophenyl)-hydrazono)-3-oxo-propionitrile]
melanosome pH (DAMP), substance alone [1]: had no effect on melanosome pH | melanosome pH (DAMP uptake at HMB45 positive melanosomes), substance alone [2]: elevated melanosome pH | eumelanin level [4]: induced an increase in eumelanin level | melanosome pH (DAMP), substance alone [3]: elevated melanosome pH

O=S(=O)(NCCNC/C=C/c1ccc(Br)cc1)c1cccc2cnccc12 [H89]
phosphorylation of PKA targeted proteins [5]: dramatic reduction in the phosphorylation of PKA targeted proteins | effect on cAMP-dependent rescue of melanosome pH (DAMP) [1]: did not block the cAMP-dependent rescue of melanosome pH | melanosome pH (DAMP uptake at HMB45 positive melanosomes), substance alone [2]: had no effect on melanosome pH | melanosome pH (DAMP), substance alone [3]: had no effect on melanosome pH

C[C@@H]1C[C@@H]([C@H](O)CC2CC(=O)NC(=O)C2)C(=O)[C@@H](C)C1 [cycloheximide]
effect on cAMP-dependent rescue of melanosome pH (DAMP) [1]: did not block the ability of cAMP to rescue pH following sAC inhibition

LRE1
eumelanin levels [6]: had no effect | eumelanin levels [7]: increased eumelanin levels | eumelanin production in hair (microscopic examination) [8, 13]: increase in eumelanin production | length of the agouti (pheomelanin) band [8, 13]: reduction in length of the agouti (pheomelanin) band | histologic examination of treated skin ([8]; topical on back, two weeks): did not reveal any pathological change to the hair follicles or epidermis | colour of regrown hair versus vehicle control ([8]; topical on epilated back, 10 μl KH7 42 mg/ml or LRE1 28 mg/ml in DMSO, three times a day over two weeks): visual darkening of regrown hair | pH of LysoSensor-visualized organelles [9]: had no effect | pH of LysoSensor-visualized organelles [10]: induced an alkaline pH shift | colour of ear epidermis relative to vehicle control ([11]; 20 μl KH7 or LRE1 (28 mg/ml)): induced visual darkening of mouse ear epidermis | epidermal melanin accumulation (Fontana Masson) [11]: increase in epidermal melanin accumulation
